The target in data set [1] is T1, rat VR1 (Rattus norvegicus, UniProt O35433).
T1 construct: expressed in transfected cells
Nature of the data set: 45Ca2+-uptake assay in CHO/VR1 cells, antagonism of capsaicin-stimulated uptake. Format: cell-based. Particulars: 45Ca2+ uptake stimulated by 50 nM capsaicin. Here is the method:
(§1) Initial stocks were dissolved in DMSO. For the binding assays, compounds were diluted in with DPBS with Ca^2+ and Mg^2+ and 0.25 mg/mL bovine serum albumin. For the calcium uptake assays, compounds were diluted in DMEM with 0.25 mg/mL bovine serum albumin.
Molecules were characterized to determine whether they were full agonists, partial agonists, or antagonists. For studies of ^45Ca^2+ uptake by CHO/VR1 cells (Tet-off cells), the cells were plated in 24-well plates to yield a cell density 20-40% of that required to produce confluence. The next day the medium was changed to remove the tetracycline and induce VR1 expression. Experiments were performed approximately 36-40 hours after induction. For ^45Ca^2+ uptake assay, cells were incubated for 5 min at 37° C. in a total volume of 400 μL of serum free DMEM (containing 1.8 mM CaCl2) in the presence of 0.25 mg/mL BSA (Sigma), 1 μCi/mL ^45Ca^2+ (5-30 Ci/g from ICN, CA), and increasing concentrations of the compound to be tested. Immediately after the incubation, extracellular ^45Ca^2+ was removed by washing the cells three times with cold DPBS (containing 1.8 mM CaCl2). Then 400 μl RIPA buffer (50 mM Tris pH 7.4; 150 mM NaCl; 1% Triton X-100; 0.1% SDS; 1% sodium deoxycholate) was added to each well in order to lyse the cells. Plates were shaken slowly for 20 min; then 306 μL of cell lysate was transferred from each well into a scintillation vial and radioactivity was determined by scintillation counting. For each data point in each experiment, four wells were assayed. Data from these experiments were analyzed by computer fit to the Hill equation. At least 3 separate experiments were carried out for each compound. In order to determine antagonist activity, studies were performed in exactly the same fashion with the exception that 50 nM capsaicin was added to the assay mixture to stimulate ^45Ca^2+ uptake.

The target of data set [2] is T1, rat VR1. Nature of the data set: [3H]resiniferatoxin (RTX) competition binding assay, VR1-transfected CHO cells. Here is the method: The pUHG102 VR1 plasmid was transfected into CHO cells containing the pTet Off regulatory plasmid (Clontech). In these cells, expression of the VR1 is repressed in the presence of tetracycline but is induced upon removal of the antibiotic. Stable clones were isolated in culture medium containing puromycin (10 μg/mL) and maintained in HAM F12 medium supplemented with tetracycline (1 μg/mL), 5 μg/ml geniticin, 25 mM HEPES, 10% FBS. Cells utilized for assays were grown in culture medium without antibiotic for 48 h before use. Cells were seeded in T75 cell culture flasks in media without antibiotics and grown to approximately 90% confluence. The flasks were then washed with PBS and harvested in 0.25% trypsin, 1 mM EDTA. The cells were pelleted by gentle centrifugation and stored at −20° C. until assay.
Competition Binding Assay
Binding studies with [^3H]resiniferatoxin (RTX) were carried out as described previously with minor modifications (Szallasi et al., 1992). Binding assay mixtures were set up on ice and contained 50-100 pM [^3H]RTX, various concentrations of competing ligands, 0.25 mg/mL BSA (Cohn fraction V), and about 5×10^5 VR1-transfected cells. The final volume was adjusted to 350 μL with DPBS with Ca^2+ and Mg^2+ and 0.25 mg/mL bovine serum albumin. Non-specific binding was determined in the presence of 100 nM nonradioactive RTX. The binding reaction was initiated by transferring the assay mixtures to a 37° C. water bath and was terminated after a 60 min incubation period by cooling the tubes on ice. To reduce non-specific binding, 200 μg/ml α-glycoprotein was added. Membrane-bound RTX was then separated from the free by pelleting the membranes in a Beckman 12 benchtop centrifuge (15 min, maximal velocity), the tips of the tubes containing the pellets were cut off, and the radioactivity was determined by scintillation counting. Equilibrium binding parameters (Ki and cooperativity) were determined by fitting the Hill equation to the measured values with the aid of the program MicroCal Origin 6.0.
as §1

Where [3] appears, read: competition with [3H]RTX, rat VR1 in CHO cells, read-out: Ki (nM) Binding Affinity.

T1 sequence (O35433 whole entry): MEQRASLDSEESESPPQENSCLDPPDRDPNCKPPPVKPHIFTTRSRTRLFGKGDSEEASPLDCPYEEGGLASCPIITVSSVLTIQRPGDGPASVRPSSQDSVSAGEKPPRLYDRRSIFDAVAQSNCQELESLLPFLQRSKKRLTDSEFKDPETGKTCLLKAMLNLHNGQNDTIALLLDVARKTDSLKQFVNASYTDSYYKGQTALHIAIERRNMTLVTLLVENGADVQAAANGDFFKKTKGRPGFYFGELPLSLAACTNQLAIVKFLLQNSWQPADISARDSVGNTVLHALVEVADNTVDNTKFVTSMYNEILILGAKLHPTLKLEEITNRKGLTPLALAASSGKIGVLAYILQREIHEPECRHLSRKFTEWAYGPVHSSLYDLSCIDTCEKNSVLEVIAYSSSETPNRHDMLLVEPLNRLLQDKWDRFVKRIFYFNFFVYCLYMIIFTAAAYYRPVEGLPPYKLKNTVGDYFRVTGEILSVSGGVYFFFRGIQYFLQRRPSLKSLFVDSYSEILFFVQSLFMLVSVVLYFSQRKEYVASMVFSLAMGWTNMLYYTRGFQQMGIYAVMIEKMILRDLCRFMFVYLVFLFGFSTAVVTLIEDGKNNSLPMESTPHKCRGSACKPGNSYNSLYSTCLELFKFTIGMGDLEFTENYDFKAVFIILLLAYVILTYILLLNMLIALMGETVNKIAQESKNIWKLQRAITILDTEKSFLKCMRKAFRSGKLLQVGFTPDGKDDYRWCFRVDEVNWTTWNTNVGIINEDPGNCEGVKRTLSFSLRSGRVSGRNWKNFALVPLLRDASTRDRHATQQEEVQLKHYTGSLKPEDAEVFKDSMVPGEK

One may read the Ki as the equilibrium dissociation constant of an inhibitor or competing ligand from its target. In general, melting point refers to the temperature of the solid-liquid transition. Take `COc1cc(C(C)C(=O)NCc2ccc(C(C)(C)C)cc2)ccc1NS(C)(=O)=O` (stereo not drawn) [1-65, N-(4-tert-Butylbenzyl)-2-[3-methoxy-4-(methylsulfonylamino)phenyl]propionamide]: the melting point was 74 to 76 °C. Moreover, in data set [1], affinity was put at a Ki of 232 nM. Besides, the Ki in data set [2] (setting [3]) amounted to 536 nM.

`CC(C(=O)NCc1ccc(C(C)(C)C)cc1)c1ccc(NS(C)(=O)=O)cc1F` (stereo not drawn) [1-66, N-(4-tert-Butylbenzyl)-2-[2-fluoro-4-(methylsulfonylamino)phenyl]propionamide] came in with a melting point of 111 to 113 °C. The inhibition constant Ki in data set [1] was 120 nM. In data set [2] (setting [3]), the inhibition constant Ki worked out at 358 nM.

In turn, `CC(C(=O)NCc1ccc(C(C)(C)C)cc1)c1ccc(NS(C)(=O)=O)cc1Cl` (stereo not drawn) [1-67, N-(4-tert-Butylbenzyl)-2-[2-chloro-4-(methylsulfonylamino)phenyl]propionamide] showed a melting point of 134 to 136 °C. In data set [1], this molecule displayed a Ki of 4480 nM. Also, the inhibition constant Ki in data set [2] (setting [3]) amounted to 1420 nM.

For `CC(C(=O)NCc1ccc(C(C)(C)C)cc1)c1ccc(NS(C)(=O)=O)cc1` (stereo not drawn) [2-7, N-(4-tert-Butylbenzyl)-2-[4-(methylsulfonylamino)phenyl]propionamide], the melting point fell in the range of 77 to 79 °C. In data set [1], this molecule yielded a Ki of 17.5 nM. Moreover, in data set [2] (setting [3]), the inhibition constant (Ki) came to 105 nM.

`CC(C(=O)NCc1ccc(Cl)cc1)c1ccc(NS(C)(=O)=O)cc1` (stereo not drawn) [2-8, N-(4-Chlorobenzyl)-2-[4-(methylsulfonylamino)phenyl]propionamide] returned a melting point of 164 °C. This molecule also registered an inhibition constant Ki in data set [1] of 1090 nM. In data set [2], this molecule yielded a Ki of 3500 nM.

In turn, `CC(C(=O)NCc1ccc(Cl)c(Cl)c1)c1ccc(NS(C)(=O)=O)cc1` (stereo not drawn) [2-9, N-(3,4-Dichlorobenzyl)-2-[4-(methylsulfonylamino)phenyl]propionamide] had a melting point of 130 °C. In data set [1], this molecule came in with a Ki of 253 nM. Besides, the inhibition constant Ki in data set [2] was 1650 nM.

With `CC(C(=O)NCc1ccc(Cl)cc1)c1ccc(NS(C)(=O)=O)c(F)c1` (stereo not drawn) [4-1, N-(4-Chlorobenzyl)-2-[3-fluoro-4-(methylsulfonylamino)phenyl]propionamide], the melting point is 129 to 130 °C. In data set [1], this molecule showed an inhibitory constant (Ki) of 367 nM. In addition, in data set [2] (setting [3]), the inhibitory constant (Ki) is 1060 nM.

`CC(C(=O)NCc1ccc(Cl)cc1)c1ccc(NS(C)(=O)=O)c(Cl)c1` (stereo not drawn) [4-2, N-(4-Chlorobenzyl)-2-[3-chloro-4-(methylsulfonylamino)phenyl]propionamide] had a melting point of 134 to 135 °C. This molecule also had a Ki in data set [1] of 447 nM. This molecule gave an inhibitory constant (Ki) in data set [2] of 729 nM.

`CC(C(=O)NCc1ccc(Cl)cc1)c1ccc(NS(C)(=O)=O)c(Br)c1` (stereo not drawn) [4-3, N-(4-Chlorobenzyl)-2-[3-bromo-4-(methylsulfonylamino)phenyl]propionamide] returned a melting point of 147 °C. The molecule further came in with a Ki in data set [1] of 296 nM. For the same molecule, the Ki in data set [2] turned out to be 541 nM.

`CC(C(=O)NCc1ccc(Cl)c(Cl)c1)c1ccc(NS(C)(=O)=O)c(F)c1` (stereo not drawn) [4-4, N-(3,4-Dichlorobenzyl)-2-[3-fluoro-4-(methylsulfonylamino)phenyl]propionamide] displayed a melting point of 130 to 133 °C. In data set [1], this molecule displayed a Ki of 115 nM. Besides, the inhibition constant Ki in data set [2] (setting [3]) was found to be 199 nM.

Molecule `CC(C(=O)NCc1ccc(Cl)c(Cl)c1)c1ccc(NS(C)(=O)=O)c(Cl)c1` (stereo not drawn) [4-5, N-(3,4-Dichlorobenzyl)-2-[3-chloro-4-(methylsulfonylamino)phenyl]propionamide] yielded a melting point of 129 to 130 °C. In addition, the affinity in data set [1], expressed as Ki, was 176 nM. The Ki in data set [2] is 289 nM.

Turning to `CC(C(=O)NCc1ccc(Cl)c(Cl)c1)c1ccc(NS(C)(=O)=O)c(Br)c1` (stereo not drawn) [4-6, N-(3,4-Dichlorobenzyl)-2-[3-bromo-4-(methylsulfonylamino)phenyl]propionamide], the melting point is 161 to 162 °C. The molecule further showed an inhibition constant Ki in data set [1] of 89.6 nM. Also, the inhibition constant Ki in data set [2] stood at 226 nM.

`CC(C)c1ccc(CNC(=O)C(C)c2ccc(NS(C)(=O)=O)c(F)c2)cc1` (stereo not drawn) [4-8, N-(4-Isopropylbenzyl)-2-[3-fluoro-4-(methylsulfonylamino)phenyl]propionamide]: the melting point fell in the range of 137 to 139 °C. In data set [1], the inhibition constant Ki worked out at 143 nM. For the same molecule, the Ki in data set [2] (setting [3]) is 127 nM.

Consider `CC(C(=O)NCc1ccc(C(F)(F)F)cc1)c1ccc(NS(C)(=O)=O)c(F)c1` (stereo not drawn) [4-10, N-(4-Trifluoromethylbenzyl)-2-[3-fluoro-4-(methylsulfonylamino)phenyl]propionamide], for which the melting point lay in the range of 150 to 152 °C. For the same molecule, the Ki in data set [1] amounted to 274 nM. Moreover, the inhibition constant (Ki) in data set [2] (setting [3]) was 657 nM.

For the molecule `CC(C(=O)NCc1ccc(-c2ccccc2)cc1)c1ccc(NS(C)(=O)=O)c(F)c1` (stereo not drawn) [4-11, N-(4-Biphenylmethyl)-2-[3-fluoro-4-(methylsulfonylamino)phenyl]propionamide], the melting point was in the range of 155 to 157 °C. In addition, in data set [1], affinity was put at a Ki of 261 nM. Further, the Ki in data set [2] (setting [3]) came to 1750 nM.

In turn, `CC(C(=O)NCc1cccc2ccccc12)c1ccc(NS(C)(=O)=O)c(F)c1` (stereo not drawn) [4-12, N-(1-Naphthylmethyl)-2-[3-fluoro-4-(methylsulfonylamino)phenyl]propionamide] displayed a melting point of 159 to 161 °C. For the same molecule, affinity in data set [1] was put at a Ki of 239 nM. Further, the inhibitory constant (Ki) in data set [2] (setting [3]) was determined as 959 nM.

As for `CC(C(=O)NCCc1ccc(C(C)(C)C)cc1)c1ccc(NS(C)(=O)=O)c(F)c1` (stereo not drawn) [4-14, N-[2-(4-t-Butylphenyl)ethyl]-2-[3-fluoro-4-(methylsulfonylamino)phenyl]propionamide], the melting point lay within 124 to 126 °C. For the same molecule, the inhibition constant Ki in data set [1] came to 42.6 nM. The Ki in data set [2] (setting [3]) came out at 553 nM.

`CC(C(=O)NCC(c1ccccc1)c1ccccc1)c1ccc(NS(C)(=O)=O)c(F)c1` (stereo not drawn) [4-23, N-(2,2-Diphenylethyl)-2-[3-fluoro-4-(methylsulfonylamino)phenyl]propionamide] had a melting point of 129 °C. Also, the Ki in data set [1] was found to be 2490 nM. Further, in data set [2] (setting [3]), the Ki worked out at 1700 nM.

Molecule `CC(C(=O)NCCC(c1ccccc1)c1ccccc1)c1ccc(NS(C)(=O)=O)c(F)c1` (stereo not drawn) [4-24, N-(3,3-Diphenylpropyl)-2-[3-fluoro-4-(methylsulfonylamino)phenyl]propionamide] came in with a melting point of 66 to 68 °C. This molecule yielded an inhibitory constant (Ki) in data set [1] of 36.6 nM. In data set [2], this molecule had an inhibition constant (Ki) of 128 nM.

`Cc1ccc(C(=CCNC(=O)C(C)c2ccc(NS(C)(=O)=O)c(F)c2)c2ccc(C)cc2)cc1` (stereo not drawn) [4-26, N-[3,3-Di(4-methylphenyl)-2-propenyl]-2-[3-fluoro-4-(methylsulfonylamino)phenyl]propionamide] showed a melting point of 163 to 165 °C. For the same molecule, in data set [1], affinity was put at a Ki of 8.03 nM. Besides, in data set [2], the affinity, expressed as Ki, was 36 nM.

`CC(C(=O)NCC=C(c1ccc(F)cc1)c1ccc(F)cc1)c1ccc(NS(C)(=O)=O)c(F)c1` (stereo not drawn) [4-27, N-[3,3-Di(4-fluorophenyl)-2-propenyl]-2-[3-fluoro-4-(methylsulfonylamino)phenyl]propionamide] registered a melting point of 57 to 60 °C. The inhibitory constant (Ki) in data set [1] was 29.3 nM. Also, the inhibition constant Ki in data set [2] (setting [3]) came out at 43.3 nM.

`CC(C(=O)NCC=C1c2ccccc2CCc2ccccc21)c1ccc(NS(C)(=O)=O)c(F)c1` (stereo not drawn) [4-28, N-[2-(10,11-Dihydro-5H-dibenzo[a,d]cyclohepten-5-yliden)ethyl]-2-[3-fluoro-4-(methylsulfonylamino)phenyl]propionamide]: the melting point is 67 to 69 °C. Further, the inhibition constant (Ki) in data set [1] is 121 nM. For the same molecule, the Ki in data set [2] (setting [3]) was 141 nM.

The values above are taken from US8642657B2 (Gruenenthal GmbH, priority 2003, dated 2014).
